Columns and labels:
Assay in all cases: relative viability (nuclei count vs DMSO), 5 days (fraction); higher = more cells survive
[1] = compound: Cc1ccc2nc(NCCN)c3ncc(C)n3c2c1 + Nc1nc2[nH]cc(CCc3ccc(C(=O)N[C@@H](CCC(=O)O)C(=O)O)cc3)c2c(=O)[nH]1 [Pemetrexed] (partner 0.2 µM)
How it was run: (§1)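 Relative viability equals treated-well nuclei counts divided by vehicle-well nuclei counts. Counts came from 4× images of lung cancer cell lines grown in 1536-well plates for 5 days after pin-tool dosing on the day after seeding. Dosing used one drug alone or a fixed anchor-drug dose plus five library-drug doses (not always all listed) in √10 steps, and values are medians of duplicate plates.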

[2] = compound: Cc1ccc2nc(NCCN)c3ncc(C)n3c2c1 + CC(C)C[C@H](NC(=O)[C@H](Cc1ccccc1)NC(=O)c1cnccn1)B(O)O [Bortezomib] (partner 0.002 µM)
How it was run: as §1

[3] = compound: Cc1ccc2nc(NCCN)c3ncc(C)n3c2c1 + CC1(C)CCC(c2ccc(Cl)cc2)=C(CN2CCN(c3ccc(C(=O)NS(=O)(=O)c4ccc(N[C@H](CCN5CCOCC5)CSc5ccccc5)c(S(=O)(=O)C(F)(F)F)c4)cc3)CC2)C1 [Navitoclax] (partner 0.5 µM)
How it was run: as §1

[4] = compound: O=C(/C=C/c1ccccc1)NC(NC(=S)Nc1cccc2cccnc12)C(Cl)(Cl)Cl [Salubrinal] + N=C(N)NC(=N)NCCc1ccccc1 [Phenformin] (partner 250 µM)
How it was run: as §1

| Cell Line | relative viability ([1]; first compound 0.04 µM) | relative viability ([1]; first compound 0.1265 µM) | relative viability ([1]; first compound 0.4 µM) | relative viability ([1]; first compound 1.265 µM) | relative viability ([1]; first compound 4 µM) | relative viability ([2]; first compound 0.04 µM) | relative viability ([2]; first compound 0.1265 µM) | relative viability ([2]; first compound 0.4 µM) | relative viability ([2]; first compound 4 µM) | relative viability ([3]; first compound 0.04 µM) | relative viability ([3]; first compound 0.1265 µM) | relative viability ([3]; first compound 0.4 µM) | relative viability ([3]; first compound 1.265 µM) | relative viability ([3]; first compound 4 µM) | relative viability ([4]; first compound 0.08 µM) | relative viability ([4]; first compound 0.253 µM) | relative viability ([4]; first compound 0.8 µM) | relative viability ([4]; first compound 2.53 µM) | relative viability ([4]; first compound 8 µM) | relative viability ([2]; first compound 1.265 µM) |
| --- | --- | --- | --- | --- | --- | --- | --- | --- | --- | --- | --- | --- | --- | --- | --- | --- | --- | --- | --- | --- |
| HCC-78 | 0.935 | 0.791 | 0.904 | 0.839 | 0.922 | 0.52 | 0.424 | 0.365 | 0.444 | 0.919 | 0.8 | 0.778 | 0.757 | 0.689 | 0.736 | 0.647 | 0.898 | 0.75 | 0.679 | – |
| HCC-366 | 0.157 | 0.202 | 0.146 | 0.126 | 0.165 | 1.06 | 0.948 | 1.13 | 0.967 | 1.26 | 1.07 | 1.03 | 0.997 | 1.02 | 0.685 | 0.579 | 0.645 | 0.642 | 0.646 | 1.11 |
| HCC-827 | 0.261 | 0.242 | 0.273 | 0.24 | 0.266 | 1.12 | 1.05 | 0.958 | 1.01 | 1.03 | 0.969 | 1.03 | 1.05 | 0.984 | 0.408 | 0.521 | 0.356 | 0.392 | 0.341 | 1.09 |
| HOP-62 | 0.298 | 0.303 | 0.348 | 0.352 | 0.339 | 1.02 | 0.692 | 0.613 | 0.432 | 0.956 | 1.05 | 0.859 | 1 | 0.954 | 0.85 | 0.491 | 0.799 | 0.702 | 0.53 | 0.86 |
| IA-LM | – | – | – | – | – | 0.895 | 0.94 | 0.844 | 0.66 | 0.792 | 0.779 | 0.707 | 0.623 | 0.587 | – | – | – | – | – | 0.696 |
| LCLC-103H | 0.503 | 0.51 | 0.5 | 0.467 | 0.494 | 1.15 | 1.23 | 0.944 | 1.04 | – | – | – | – | – | 0.388 | 0.282 | 0.318 | 0.38 | 0.308 | 1.2 |
| LK-2 | 0.252 | 0.297 | – | – | 0.191 | – | – | – | – | 0.831 | 0.65 | 0.886 | 0.77 | 0.789 | 0.502 | 0.466 | 0.675 | 0.3 | 0.395 | – |
| NCI-H358 | 0.185 | 0.165 | 0.166 | 0.178 | 0.192 | – | – | – | – | – | – | – | – | – | 0.365 | 0.27 | 0.36 | 0.319 | 0.278 | – |
| NCI-H522 | 1.02 | 1.24 | 0.766 | 1.28 | 0.95 | – | – | – | – | – | – | – | – | – | 0.723 | 0.662 | 0.714 | 0.615 | 0.605 | – |
| NCI-H650 | 0.999 | 0.976 | 0.827 | 1.01 | 0.851 | 0.863 | 0.673 | 0.73 | 0.621 | – | – | – | – | – | 0.456 | 0.514 | 0.509 | 0.499 | 0.417 | 0.859 |
| NCI-H661 | 0.909 | 0.949 | 0.958 | 0.891 | 0.868 | 0.909 | 0.868 | 0.595 | 0.651 | – | – | – | – | – | 0.278 | 0.283 | 0.28 | 0.288 | 0.275 | – |
| NCI-H727 | – | – | – | – | – | 0.822 | 0.806 | 0.683 | 0.639 | 0.379 | 0.475 | 0.41 | 0.238 | 0.413 | 0.41 | 0.461 | 0.491 | 0.504 | 0.688 | 0.732 |
| NCI-H1299 | – | – | – | – | – | 1 | 0.993 | 1.01 | 0.972 | 1.02 | 1.04 | 1.06 | 1.02 | 0.898 | – | – | – | – | – | 1.05 |
| NCI-H1395 | 0.881 | 0.995 | 0.855 | 0.697 | 0.56 | – | – | – | – | 1.27 | 1.13 | 1.31 | 1 | 1.1 | 0.473 | 0.459 | 0.451 | 0.453 | 0.431 | – |
| NCI-H1563 | 0.861 | 0.78 | 0.877 | 0.718 | 0.705 | 0.859 | 0.757 | 0.875 | 1.05 | – | – | – | – | – | 0.71 | 0.617 | 0.647 | 0.635 | 0.692 | 0.968 |
| NCI-H1623 | – | – | – | – | – | – | – | – | – | – | – | – | – | – | 0.522 | 0.564 | 0.61 | 0.578 | 0.551 | – |
| NCI-H1648 | 0.696 | 0.85 | 0.723 | 0.627 | 0.7 | – | – | – | – | – | – | – | – | – | – | – | – | – | – | – |
| NCI-H1703 | – | – | – | – | – | 0.34 | 0.329 | 0.329 | 0.234 | 1.3 | 0.881 | 1 | 1.18 | 0.707 | – | – | – | – | – | 0.347 |
| NCI-H1793 | 0.951 | 0.85 | 0.846 | 0.714 | 0.766 | – | – | – | – | 0.467 | 0.417 | 0.418 | 0.477 | 0.476 | 0.446 | 0.349 | 0.391 | 0.394 | 0.33 | – |
| NCI-H1944 | 0.687 | 0.586 | 0.582 | 0.555 | 0.587 | – | – | – | – | 1.11 | 1.01 | 1.04 | 1.06 | 1.03 | 0.198 | 0.191 | 0.214 | 0.185 | 0.178 | – |
| NCI-H2170 | 0.258 | 0.305 | 0.26 | 0.257 | 0.262 | – | – | – | – | 0.687 | 0.659 | 0.59 | 0.601 | 0.598 | 0.468 | 0.423 | 0.241 | 0.403 | 0.373 | – |
| NCI-H2342 | 0.871 | 0.817 | 0.751 | 0.827 | 0.713 | – | – | – | – | – | – | – | – | – | 0.497 | 0.564 | 0.618 | 0.635 | 0.572 | – |
| SK-MES-1 | 1.04 | 0.903 | 0.9 | 1.05 | 0.92 | – | – | – | – | 1.26 | 1.33 | 1.14 | 1.13 | 1.17 | 0.703 | 0.64 | 0.668 | 0.672 | 0.605 | – |
| SW 900 | – | 0.49 | 0.444 | 0.464 | 0.489 | – | – | – | – | – | – | – | – | – | 0.555 | – | 0.656 | 0.607 | 0.676 | – |

— the supplement of paper PMC10307832
